# Read-outs that look alike come from different tables or passages of the source.
# Key:
# [1] = Pharmacokinetic study in SD rats after oral administration of TWMM (UPLC-QQQ-MS of plasma); assay type: in vivo, Sprague-Dawley (SD) rats; conditions: oral TWMM 9.6 g/kg; for AUC(0-t): n = 6, read-out: AUC (0–36); for Cmax: n = 6, read-out: Cmax; for MRT last: n = 6, read-out: MRT (0–36); for MRT inf: n = 6, read-out: MRT (0–∞); for AUC(0-inf): read-out: areas under the concentration-time curve (AUC0–∞)
# Protocol: Chromatographic separation was performed using an ACQUITY UPLC H-Class system equipped with a 1.8 μm HSS T3 analytical column (100 mm × 2.1 i.d., Waters Corporation, Milford, USA). […] ESI source was set to negative ionisation mode while the analysis was performed using multiple reaction monitorin. Ion spray voltage (3000 V), capillary temperature (450 °C), and the source parameters of the nine compounds are shown in Table 2.
# The data obtained from the UPLC/Q-Orbitrap MS was imported into Xcalibur 4.0 software for analysis. Furthermore, the constituents acquired using GCMS-QP 2010 were profiled by comparison using the National Institute of Standards and Technology (NIST) database. The pharmacokinetic data were processed through MassLynx 4.1, and DAS 2.0 software was used to calculate the pharmacokinetic parameters according to the compartment model.
# Six male SD rats (average weight: 220 ± 10 g) were acquired from Beijing Vital-River Laboratory Animal Technology Co., Ltd. All rats were acclimatized to an environmentally controlled laboratory for a week. Following this period, the rats were exposed to fasting conditions for 12 h but were allowed free access to water before the experiment. The rats were orally administered TWMM at a dose of 9.6 g/kg. Blood samples (300 µL) were collected into heparinized centrifuge tubes from the fossa orbitalis at pre-dose and 0.03, 0.08, 0.17, 0.25, 0.5, 1, 2, 4, 8, 12, 24, and 36 h intervals. The samples were immediately centrifuged at 6000 g for 10 min at 4 °C and the supernatants were transferred to clean centrifuge tubes.
# Each 100 µL plasma sample was mixed with 20 µL of methanol, 20 µL of IS (5 µg/mL), and 600 µL acetonitrile. The mixtures were centrifuged at 15,000 g for 10 min at 4 °C after being vortexed for 3 min. The obtained supernatants were transferred to clean 1.5 mL centrifuge tubes, followed by evaporation under a milt nitrogen stream. Next, the obtained residues were individually redissolved in 100 µL of methanol and centrifuged at 15,000 g for 10 min at 4 °C after vortexed for 3 min. Lastly, 10 µL of individual supernatant was injected for analysis.
# [2] = Stability of QC samples of 8 compounds in rat plasma (25 °C 4 h, autosampler 12 h, three freeze-thaw cycles, −80 °C 7 d); assay type: in vitro ADME; conditions: rat, plasma; for Stability in rat plasma, Long term (7 day, –80 °C), Measured: 168 h
# Protocol: The calibration curves were assessed at eight concentration levels using the correlation coefficient (r). The lower limit of quantification (LLOQ) could fulfil the analytical requirements and achieved reliable accuracy and precision with a signal-to-noise ratio (S/N) ≥ 10. To determine intra- and inter-day precision and accuracy, six replicate quality control (QC) samples at three concentrations were prepared. Inter- and intra-day precision was evaluated by determining relative standard deviation (RSD) values, while accuracy was expressed in terms of the relative error (RE). The extraction recoveries were determined using three concentration levels and calculated by comparing the peak area of extracted samples with post-extracted spiked samples. Subsequently, matrix effects were assessed using the peak area of post-extracted spiked samples contrasted with QC samples at the three concentration levels. The stability test of QC samples at the three concentration levels was as follows: storage at 25 °C for 4 h, storage in an autosampler for 12 h, freeze-thaw cycle for three times, and storage at −80 °C for 7 d.
# The stability tests were carried out under three freeze-thaw cycles, at 25 °C for 4 h, in an autosampler for 12 h, and at −80 °C for 7 d.
# [3] = male, Sprague-Dawley, rat, n = 6
smiles,measurement,setting,value
C/C=C1/[C@H](O[C@@H]2O[C@H](CO)[C@@H](O)[C@H](O)[C@H]2O)OC=C(C(=O)OC)[C@H]1CC(=O)OCCc1ccc(O)c(O)c1 [Oleuropein],half-life,[1]; [3],3.36 h
same,AUC(0-t),"[1]; male, Sprague-Dawley, rat",1.03 ± 0.75 ng·h/mL
same,Cmax,"[1]; male, Sprague-Dawley, rat",0.9 ± 0.82 ng/mL
same,MRT last,"[1]; male, Sprague-Dawley, rat",1.53 ± 1.25 h
same,MRT inf,"[1]; male, Sprague-Dawley, rat",1.54 ± 1.25 h
same,AUC(0-inf),"[1]; male, Sprague-Dawley, rat",1.03 ± 0.75 ng·h/mL
same,Tmax,"[1]; male, Sprague-Dawley, rat, po, 9.6 g/kg, n = 6, read-out: Tmax",1.37 ± 1.6 h
same,t1/2,[1]; n = 6,rapid elimination
same,"Stability in rat plasma, Three freeze/thaw cycles, Measured",[2]; 0.5 ng/mL,0.5 ± 0.1 ng/mL
same,"Stability in rat plasma, Three freeze/thaw cycles, Measured",[2]; 5 ng/mL,5.1 ± 0.2 ng/mL
same,"Stability in rat plasma, Three freeze/thaw cycles, Measured",[2]; 100 ng/mL,103.6 ± 9.3 ng/mL
same,"Stability in rat plasma, Room temperature (4 h, 25 °C), Measured",[2]; 0.5 ng/mL,0.5 ± 0.1 ng/mL
same,"Stability in rat plasma, Room temperature (4 h, 25 °C), Measured",[2]; 5 ng/mL,4.3 ± 0.5 ng/mL
same,"Stability in rat plasma, Room temperature (4 h, 25 °C), Measured",[2]; 100 ng/mL,108.6 ± 7.8 ng/mL
same,"Stability in rat plasma, Autosampler (12 h, 4 °C), Measured",[2]; 0.5 ng/mL,0.4 ± 0.1 ng/mL
same,"Stability in rat plasma, Autosampler (12 h, 4 °C), Measured",[2]; 5 ng/mL,0.5 ± 0.0 ng/mL
same,"Stability in rat plasma, Autosampler (12 h, 4 °C), Measured",[2]; 100 ng/mL,93.4 ± 8.6 ng/mL
same,"Stability in rat plasma, Long term (7 day, –80 °C), Measured",[2]; 0.5 ng/mL,1.0 ± 0.0 ng/mL
same,"Stability in rat plasma, Long term (7 day, –80 °C), Measured",[2]; 5 ng/mL,4.9 ± 0.3 ng/mL
same,"Stability in rat plasma, Long term (7 day, –80 °C), Measured",[2]; 100 ng/mL,113.9 ± 9.9 ng/mL
C[C@@H]1O[C@@H](O[C@@H]2[C@@H](O)[C@H](OCCc3ccc(O)c(O)c3)O[C@H](CO)[C@H]2OC(=O)/C=C/c2ccc(O)c(O)c2)[C@H](O)[C@H](O)[C@H]1O [Verbascoside],half-life,[1]; [3],2.08 ± 0.38 h
same,AUC(0-t),"[1]; male, Sprague-Dawley, rat",175 ± 40.8 ng·h/mL
same,Cmax,"[1]; male, Sprague-Dawley, rat",45.5 ± 21.2 ng/mL
same,MRT last,"[1]; male, Sprague-Dawley, rat",8.9 ± 3.44 h
same,MRT inf,"[1]; male, Sprague-Dawley, rat",8.91 ± 3.44 h
same,AUC(0-inf),"[1]; male, Sprague-Dawley, rat",175 ± 40.8 ng·h/mL
same,Tmax,[1]; n = 6,0.25 ± 0.14 h
same,Tmax,"[1]; n = 6, listed as verbascoside",≤ 1 h
same,t1/2,"[1]; n = 6, listed as verbascoside",rapid elimination
same,"Stability in rat plasma, Three freeze/thaw cycles, Measured",[2]; 2 ng/mL,2.0 ± 0.1 ng/mL
same,"Stability in rat plasma, Three freeze/thaw cycles, Measured",[2]; 20 ng/mL,21.8 ± 1.9 ng/mL
same,"Stability in rat plasma, Three freeze/thaw cycles, Measured",[2]; 400 ng/mL,416.4 ± 17.6 ng/mL
same,"Stability in rat plasma, Room temperature (4 h, 25 °C), Measured",[2]; 2 ng/mL,2.2 ± 0.1 ng/mL
same,"Stability in rat plasma, Room temperature (4 h, 25 °C), Measured",[2]; 20 ng/mL,19.6 ± 1.0 ng/mL
same,"Stability in rat plasma, Room temperature (4 h, 25 °C), Measured",[2]; 400 ng/mL,427.6 ± 13.8 ng/mL
same,"Stability in rat plasma, Autosampler (12 h, 4 °C), Measured",[2]; 2 ng/mL,2.1 ± 0.2 ng/mL
same,"Stability in rat plasma, Autosampler (12 h, 4 °C), Measured",[2]; 20 ng/mL,23.8 ± 1.8 ng/mL
same,"Stability in rat plasma, Autosampler (12 h, 4 °C), Measured",[2]; 400 ng/mL,402.4 ± 19.1 ng/mL
same,"Stability in rat plasma, Long term (7 day, –80 °C), Measured",[2]; 2 ng/mL,1.9 ± 0.2 ng/mL
same,"Stability in rat plasma, Long term (7 day, –80 °C), Measured",[2]; 20 ng/mL,21.3 ± 1.8 ng/mL
same,"Stability in rat plasma, Long term (7 day, –80 °C), Measured",[2]; 400 ng/mL,430.0 ± 6.2 ng/mL

# Reference: paper PMC8491704, “Pharmacokinetic study of Tangwang Mingmu granule for the management of diabetic retinopathy based on network pharmacology” (Pharmaceutical Biology, 2021)
